Test results published in patent publication US20250011299A1, “PYRIDAZINYL AMINO DERIVATIVES AS ALK5 INHIBITORS” (CHIESI FARMACEUTICI S.P.A., priority 2021, published 2025).

The compounds below were run against T1, human ALK5 (Homo sapiens, UniProt P36897) (assay: ADP-GLO Kinases assay of ALK5 enzymatic activity). Conditions: purified recombinant human ALK5, TGFβ1 peptide substrate, pIC50 converted to pKi by Cheng-Prusoff, high ATP protocol (15 μM) for very potent compounds, 25° C.
T1 construct: human ALK5 (recombinant TGF β1 N-term GST-tagged, 80-end); GST (N); purchased
T1 sequence (P36897 80-503 limits assumed): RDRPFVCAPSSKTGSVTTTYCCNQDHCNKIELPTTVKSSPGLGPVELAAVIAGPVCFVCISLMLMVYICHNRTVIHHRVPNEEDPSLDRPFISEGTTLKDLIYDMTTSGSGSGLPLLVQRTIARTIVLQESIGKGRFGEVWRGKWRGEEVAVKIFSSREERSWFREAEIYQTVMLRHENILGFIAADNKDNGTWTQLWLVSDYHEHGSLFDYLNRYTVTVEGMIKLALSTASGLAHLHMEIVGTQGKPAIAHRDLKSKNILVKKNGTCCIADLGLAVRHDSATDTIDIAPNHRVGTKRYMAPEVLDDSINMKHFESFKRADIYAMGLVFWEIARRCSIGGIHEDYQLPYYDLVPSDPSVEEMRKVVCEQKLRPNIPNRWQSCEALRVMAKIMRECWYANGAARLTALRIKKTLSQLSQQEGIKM
Assay type: biochemical
Outline: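 Purified ALK5 preincubated 15 min with compound, then reacted with substrate and ATP; ADP formed read by ADP-Glo luminescence after 120 min or 60 min reaction, all steps at 25° C. 11-point concentration-response; pIC50 converted to pKi via Cheng-Prusoff.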

| Compound | Ki [nM] |
| --- | --- |
| CN1CCN(CCC(=O)Nc2cc(Nc3cc(-c4cc(Cl)ccc4F)nnc3SCc3ccc(C(=O)O)cc3)ccn2)CC1 [Example 203, 4-({[6-(5-chloro-2-fluorophenyl)-4-({2-[3-(4-methylpiperazin-1-yl)propanamido]pyridin-4-yl}amino)pyridazin-3-yl]sulfanyl}methyl)benzoic acid] | ≤ 0.1 |
| CN1CCN(CCC(=O)Nc2cc(Nc3cc(-c4cc(Cl)ccc4F)nnc3N(C)C3CCOC3)ccn2)CC1 (racemic) [Example 105, N-(4-{[6-(5-chloro-2-fluorophenyl)-3-[methyl(oxolan-3-yl)amino]pyridazin-4-yl]amino}pyridin-2-yl)-3-(4-methylpiperazin-1-yl)propanamide] | ≤ 0.1 |
| CN1CCN(CCC(=O)Nc2cc(Nc3cc(-c4cc(Cl)ccc4F)nnc3S(C)(=N)=O)ccn2)CC1 (stereo not shown) [Example 19, N-(4-{[6-(5-chloro-2-fluorophenyl)-3-[imino(methyl)oxo-λ^6-sulfanyl]pyridazin-4-yl]amino}pyridin-2-yl)-3-(4-methylpiperazin-1-yl)propanamide] | 0.398 to 3.16 |
| CN1C[C@@H]2C[C@H]1CN2CC(=O)Nc1cc(Nc2cc(-c3cc(Cl)ccc3F)nnc2OC[C@H]2C[C@@H](O)C2)ccn1 [Example 122, N-(4-{[6-(5-chloro-2-fluorophenyl)-3-[(3-hydroxycyclobutyl)methoxy]pyridazin-4-yl]amino}pyridin-2-yl)-2-[(1S,4S)-5-methyl-2,5-diazabicyclo[2.2.1]heptan-2-yl]acetamide] | ≤ 0.1 |
| CN1CCN([C@@H]2CC[C@@H](C(=O)Nc3cc(Nc4cc(-c5cc(Cl)ccc5F)nnc4SCCO)ccn3)C2)CC1 (single isomer, unassigned; enantiomer 1) [Example 189, Trans Enantiomer 1 N-(4-{[6-(5-chloro-2-fluorophenyl)-3-[(2-hydroxyethyl)sulfanyl]pyridazin-4-yl]amino}pyridin-2-yl)-3-(4-methylpiperazin-1-yl)cyclopentane-1-carboxamide] | ≤ 0.1 |
| CN1CC(COc2nnc(-c3cc(Cl)ccc3F)cc2Nc2ccnc(NC(=O)C3CC3)c2)C1 [Example 44, N-(4-{[6-(5-chloro-2-fluorophenyl)-3-[(1-methylazetidin-3-yl)methoxy]pyridazin-4-yl]amino}pyridin-2-yl)cyclopropanecarboxamide] | 0.126 to 0.316 |
| COC(=O)C1CN(CC(=O)Nc2cc(Nc3cc(-c4cc(Cl)ccc4F)nnc3OCCN(C)C)ccn2)CCN1C (stereo not shown) [Example 12, methyl 4-{[(4-{[6-(5-chloro-2-fluorophenyl)-3-[2-(dimethylamino)ethoxy]pyridazin-4-yl]amino}pyridin-2-yl)carbamoyl]methyl}-1-methylpiperazine-2-carboxylate] | 0.126 to 0.316 |
| O=C(Nc1cc(Nc2cc(-c3cc(Cl)ccc3F)nnc2SCCO)ccn1)[C@H]1C[C@@H](N2CCN(C3CC3)CC2)C1 [Example 160, Cis N-(4-{[6-(5-chloro-2-fluorophenyl)-3-[(2-hydroxyethyl)sulfanyl]pyridazin-4-yl]amino}pyridin-2-yl)-3-(4-cyclopropylpiperazin-1-yl)cyclobutane-1-carboxamide] | ≤ 0.1 |
| COCCOc1nnc(-c2cc(Cl)ccc2F)cc1Nc1ccnc(N)c1 [Example 69, N4-[6-(5-chloro-2-fluorophenyl)-3-(2-methoxyethoxy)pyridazin-4-yl]pyridine-2,4-diamine] | 0.398 to 3.16 |
| CN1CCN([C@H]2C[C@@H](C(=O)Nc3cc(Nc4cc(-c5cc(Cl)ccc5F)nnc4OC4CCOC4)ccn3)C2)CC1 (single isomer, unassigned) [Example 113, N-(4-{[6-(5-chloro-2-fluorophenyl)-3-(oxolan-3-yloxy)pyridazin-4-yl]amino}pyridin-2-yl)-3-(4-methylpiperazin-1-yl)cyclobutane-1-carboxamide] | 0.126 to 0.316 |
| CN1CC2CCC1CN(CC(=O)Nc1cc(Nc3cc(-c4cc(Cl)ccc4F)nnc3SCCO)ccn1)C2 (stereo not shown) [Example 82, N-(4-{[6-(5-chloro-2-fluorophenyl)-3-[(2-hydroxyethyl)sulfanyl]pyridazin-4-yl]amino}pyridin-2-yl)-2-{6-methyl-3,6-diazabicyclo[3.2.2]nonan-3-yl}acetamide] | ≤ 0.1 |
| Nc1cc(Nc2cc(-c3cc(Cl)ccc3F)nnc2OCC(F)F)ccn1 [Example 53, N4-[6-(5-chloro-2-fluorophenyl)-3-(2,2-difluoroethoxy)pyridazin-4-yl]pyridine-2,4-diamine] | 0.398 to 3.16 |
| CN1CCN(CCC(=O)Nc2cc(Nc3cc(-c4cc(Cl)ccc4F)nnc3SCC3(C)CCOC3=O)ccn2)CC1 (stereo not shown) [Example 197, N-(4-{[6-(5-chloro-2-fluorophenyl)-3-{[(3-methyl-2-oxooxolan-3-yl)methyl]sulfanyl}pyridazin-4-yl]amino}pyridin-2-yl)-3-(4-methylpiperazin-1-yl)propanamide] | 0.126 to 0.316 |
| CN1CCCN(CCC(=O)Nc2cc(Nc3cc(-c4cc(Cl)ccc4F)nnc3SCCO)ccn2)CC1 [Example 84, N-(4-{[6-(5-chloro-2-fluorophenyl)-3-[(2-hydroxyethyl)sulfanyl]pyridazin-4-yl]amino}pyridin-2-yl)-3-(4-methyl-1,4-diazepan-1-yl)propanamide] | ≤ 0.1 |
| CN1CCN(CCOc2nnc(-c3cc(Cl)ccc3F)cc2Nc2ccnc3[nH]ccc23)CC1 [Example 37, 6-(5-chloro-2-fluorophenyl)-3-[2-(4-methylpiperazin-1-yl)ethoxy]-N-{1H-pyrrolo[2,3-b]pyridin-4-yl}pyridazin-4-amine] | 0.398 to 3.16 |
| CN1CCCN([C@H]2C[C@@H](C(=O)Nc3cc(Nc4cc(-c5cc(Cl)ccc5F)nnc4SCCO)ccn3)C2)CC1 [Example 155, Cis N-(4-{[6-(5-chloro-2-fluorophenyl)-3-[(2-hydroxyethyl)sulfanyl]pyridazin-4-yl]amino}pyridin-2-yl)-3-(4-methyl-1,4-diazepan-1-yl)cyclobutane-1-carboxamide] | 0.126 to 0.316 |
| CN1CCN(CCC(=O)Nc2cc(Nc3cc(-c4cc(Cl)ccc4F)nnc3N(C)[C@@H]3CCOC3)ccn2)CC1 (single isomer, unassigned) [Example 107, N-(4-{[6-(5-chloro-2-fluorophenyl)-3-[methyl(oxolan-3-yl)amino]pyridazin-4-yl]amino}pyridin-2-yl)-3-(4-methylpiperazin-1-yl)propanamide] | ≤ 0.1 |
| CN1CCN(CCC(=O)Nc2cc(Nc3cc(-c4cc(Cl)ccc4F)nnc3SCc3cccc(C(=O)O)c3)ccn2)CC1 [Example 196, 3-({[6-(5-chloro-2-fluorophenyl)-4-({2-[3-(4-methylpiperazin-1-yl)propanamido]pyridin-4-yl}amino)pyridazin-3-yl]sulfanyl}methyl)benzoic acid] | 0.126 to 0.316 |
| CN1CCN(CCOc2nnc(-c3cc(Cl)ccc3F)cc2Nc2ccnc(NC(=O)C3CC3)c2)CC1 [Example 36, N-(4-{[6-(5-chloro-2-fluorophenyl)-3-[2-(4-methylpiperazin-1-yl)ethoxy]pyridazin-4-yl]amino}pyridin-2-yl)cyclopropanecarboxamide] | ≤ 0.1 |
| CN1CCN([C@H]2C[C@@H](C(=O)Nc3cc(Nc4cc(-c5cc(Cl)ccc5F)nnc4SCCO)ncn3)C2)CC1 [Example 91, Cis N-(6-{[6-(5-chloro-2-fluorophenyl)-3-[(2-hydroxyethyl)sulfanyl]pyridazin-4-yl]amino}pyrimidin-4-yl)-3-(4-methylpiperazin-1-yl)cyclobutane-1-carboxamide] | 0.126 to 0.316 |
| O=C(Nc1cc(Nc2cc(-c3cc(Cl)ccc3F)nnc2SCCO)ccn1)C1CC(N2CCC(F)(F)C(CO)C2)C1 (racemic) [Example 170, N-(4-{[6-(5-chloro-2-fluorophenyl)-3-[(2-hydroxyethyl)sulfanyl]pyridazin-4-yl]amino}pyridin-2-yl)-3-[4,4-difluoro-3-(hydroxymethyl)piperidin-1-yl]cyclobutane-1-carboxamide] | ≤ 0.1 |
| CC(C)OC(=O)C1CN(c2nnc(-c3cc(Cl)ccc3F)cc2Nc2ccnc(NC(=O)CCN3CCN(C)CC3)c2)C1 [Example 100, propan-2-yl 1-[6-(5-chloro-2-fluorophenyl)-4-({2-[3-(4-methylpiperazin-1-yl)propanamido]pyridin-4-yl}amino)pyridazin-3-yl]azetidine-3-carboxylate] | 0.126 to 0.316 |
| CN(C)CCOC(=O)c1cccc(CSc2nnc(-c3cc(Cl)ccc3F)cc2Nc2ccnc3[nH]ccc23)c1 [Example 207, 2-(dimethylamino)ethyl 3-({[6-(5-chloro-2-fluorophenyl)-4-({1H-pyrrolo[2,3-b]pyridin-4-yl}amino)pyridazin-3-yl]sulfanyl}methyl)benzoate] | 0.126 to 0.316 |
| COc1nnc(-c2cc(Cl)ccc2F)cc1Nc1ccnc(NC(=O)CCN2CCN(CC(F)(F)F)CC2)c1 [Example 13, N-(4-{[6-(5-chloro-2-fluorophenyl)-3-methoxypyridazin-4-yl]amino}pyridin-2-yl)-3-[4-(2,2,2-trifluoroethyl)piperazin-1-yl]propanamide] | ≤ 0.1 |
| CN1CCN(CCC(=O)Nc2cc(Nc3cc(-c4cc(Cl)ccc4F)nnc3[S+](C)[O-])ccn2)CC1 (stereo not shown) [Example 17, N-(4-{[6-(5-chloro-2-fluorophenyl)-3-methanesulfinylpyridazin-4-yl]amino}pyridin-2-yl)-3-(4-methylpiperazin-1-yl)propanamide] | 0.126 to 0.316 |
